Source: publication PMC8406418 (Journal of Natural Products, 2021)
Where “and” joins values, the source holds several entries; their conditions need not be identical. Identical values can stand only once. Like-named read-outs stand apart in the source and are kept apart here. Where a SMILES comes first, the peptide text is derived from it. Bridges are numbered along the chain shown (N, C = ends).

Legend:
mouse KOR [1] = biological target: T1, mouse KOR (Mus musculus, UniProt P33534)
mouse KOR [2] = biological target: T1, mouse KOR; assay type: cell-based; set-up: expressed in transfected cells; host or cells: HEK293 (transient, jetPRIME)
[3] = system: human T-cell proliferation; set-up: method as in PMID 23840803; details: cited from earlier work
mouse KOR [4] = biological target: T1, mouse KOR; assay: biochemical
mouse KOR [5] = biological target: T1, mouse KOR; assay: cell-based; details: for Emax: HEK293, read-out: Emax cAMP inhibition
[6] = system: untransfected HEK 293 cells; assay type: cell-based

T1 sequence (P33534 whole entry): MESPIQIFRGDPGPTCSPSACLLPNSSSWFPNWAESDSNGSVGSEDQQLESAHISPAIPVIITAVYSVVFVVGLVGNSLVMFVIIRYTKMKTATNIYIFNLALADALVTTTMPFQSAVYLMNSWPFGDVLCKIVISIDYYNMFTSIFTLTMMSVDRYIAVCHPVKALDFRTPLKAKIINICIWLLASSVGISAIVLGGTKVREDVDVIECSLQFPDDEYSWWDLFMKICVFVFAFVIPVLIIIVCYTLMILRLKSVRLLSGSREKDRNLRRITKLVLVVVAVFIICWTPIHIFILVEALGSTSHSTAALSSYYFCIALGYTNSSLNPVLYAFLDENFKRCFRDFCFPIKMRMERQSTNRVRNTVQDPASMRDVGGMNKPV

With `CC[C@H]1CN2CCc3cc(OC)c(OC)cc3[C@@H]2C[C@@H]1C[C@H]1NCCc2cc(OC)c(OC)cc21` [Emetine] the “displacement of [3H]-DPN” value (mouse KOR [1]; up to concentrations of 10 μM, 1 nM [3H]-DPN) was “did not displace the radioligand”.

For `CC(C)C[C@@H]1NC(=O)CNC(=O)[C@H](CC(N)=O)NC(=O)[C@H](CCCNC(=N)N)NC(=O)[C@H]([C@@H](C)O)NC(=O)[C@@H]2CSSC[C@@H]3NC(=O)[C@H]([C@@H](C)O)NC(=O)CNC(=O)CNC(=O)[C@H](C(C)C)NC(=O)[C@@H]4CSSC[C@H](NC(=O)[C@H](CCCCN)NC(=O)[C@H](CSSC[C@H](NC(=O)[C@H](C(C)C)NC(=O)[C@@H]5CCCN5C1=O)C(=O)NCC(=O)N[C@@H](CCC(=O)O)C(=O)N[C@@H]([C@@H](C)O)C(=O)N4)NC(=O)CNC(=O)[C@@H]1CCCN1C(=O)[C@H]([C@@H](C)O)NC(=O)[C@H](CC(N)=O)NC3=O)C(=O)N[C@@H](CO)C(=O)N[C@@H](Cc1c[nH]c3ccccc13)C(=O)N1CCC[C@H]1C(=O)N[C@@H](C(C)C)C(=O)N2` [T20K, [T20K]kalata B1] (cyclo(CGETCVGGTCNTPGCKCSWPVCTRNGLPV); disulfide 1-15, 5-17, 10-22), the “β-arrestin-2 recruitment (interaction of β-arrestin-2 and KOR)” value (mouse KOR [2]) is listed as “no interaction of β-arrestin-2 and KOR was detected”, the “potency to suppress lymphocyte proliferation” value [3] is listed as 2 to 4 µM and the Ki (mouse KOR [4]) is listed as 2 µM and ~2 µM. The “increase in basal cAMP production” value (mouse KOR [5]) was ~50%, the “increase in efficacy of dyn A1–13 (cAMP)” value (mouse KOR [5]) was 30–60% and the EC50 (mouse KOR [5]; EC50 cAMP inhibition) was 24 µM and ~24 µM. It also gave an Emax (mouse KOR [5]) of 105 ± 5%.

In the case of `CC[C@H](C)[C@@H]1NC(=O)[C@H](C(C)C)NC(=O)[C@H]([C@@H](C)O)NC(=O)[C@H](CO)NC(=O)[C@H](Cc2ccccc2)NC(=O)[C@@H]2CSSC[C@@H]3NC(=O)[C@H](C(C)C)NC(=O)[C@H](CCCCN)NC(=O)[C@H](CC(N)=O)NC(=O)[C@H](CCCCN)NC(=O)[C@@H]4CSSC[C@H](NC(=O)[C@H](CO)NC(=O)[C@H](CCC(=O)O)NC(=O)CNC(=O)[C@H](CSSC[C@H](NC(=O)CNC1=O)C(=O)N[C@@H](CO)C(=O)N4)NC(=O)[C@@H]1CCCN1C(=O)[C@H]([C@@H](C)CC)NC(=O)[C@H](C(C)C)NC(=O)CNC(=O)[C@H](CC(N)=O)NC(=O)[C@H](CCCNC(=N)N)NC(=O)[C@H](Cc1ccc(O)cc1)NC3=O)C(=O)N[C@@H](C(C)C)C(=O)N[C@@H](Cc1ccccc1)C(=O)N[C@@H]([C@@H](C)CC)C(=O)N1CCC[C@H]1C(=O)N2` [caripe 10] (cyclo(CFSTVIGCSCKNKVCYRNGVIPCGESCVFIP); disulfide 1-15, 8-23, 10-27), the “displacement of [3H]-DPN by cyclotides” value (mouse KOR [1]) is reported as “strongest effect”, the Ki (mouse KOR [4]) is reported as 1.2 ± 0.3 µM and the EC50 (mouse KOR [5]; EC50 cAMP inhibition) is reported as 60.2 µM and ~60 µM. The Emax (mouse KOR [5]) was 144 ± 12%.

For `CC[C@H](C)[C@H](NC(=O)[C@H](CCCNC(=N)N)NC(=O)[C@H](CCCNC(=N)N)NC(=O)[C@H](CC(C)C)NC(=O)[C@H](Cc1ccccc1)NC(=O)CNC(=O)CNC(=O)[C@@H](N)Cc1ccc(O)cc1)C(=O)N[C@@H](CCCNC(=N)N)C(=O)N1CCC[C@H]1C(=O)N[C@@H](CCCCN)C(=O)N[C@@H](CC(C)C)C(=O)N[C@@H](CCCCN)C(N)=O` [dyn A1–13, Dyn A1–13 amide, reference compound], the EC50 (mouse KOR [2]; read-out: EC50 β-arrestin-2 recruitment) was 0.159 ± 0.0924 µM, the Ki (mouse KOR [1]; read-out: Ki ± SD) was 0.0004 µM and 0.0003 µM and the “cAMP inhibition Emax ± SD” value (mouse KOR [5]) was 115.5 ± 20.0% and 122.0 ± 21.6% and 133.2 ± 41.9 % and 160.3 ± 47.4 % and 158.8 ± 54.0 %. For the same molecule, the EC50 (mouse KOR [5]; read-out: cAMP inhibition EC50 ± SD) was 0.0088 ± 0.0024 µM and the “changes in cAMP levels” value [6] was “no changes in cAMP levels were observed”.
